# Calls of active or inactive are those of the source. No cut-off for these calls is given here.
# Legend:
# [1] = molecular target: Protein cereblon/Cyclin-dependent kinase 12 (Homo sapiens) (UniProt Q9NYV4+Q96SW2); assay: PROTAC activity at CRBN/CDK12 in human HeLa cells assessed as induction of CDK12 degradation measured after 24 hrs by fluorescence based cytoblot assay; format: cell-based
# HeLa = assay: Antiproliferative activity against human HeLa cells assessed as inhibition of cell growth measured after 96 hrs by SRB assay; format: functional, cell-based
# MDA-MB-231 [2] = assay: Antiproliferative activity against human MDA-MB-231 cells assessed as inhibition of cell growth measured after 96 hrs by SRB assay; format: functional, cell-based; conditions: MDA-MB-231, 96 h
# Bel-7402 = assay: Antiproliferative activity against human Bel-7402 cells assessed as inhibition of cell growth measured after 96 hrs by SRB assay; format: functional, cell-based; conditions: Bel-7402, 96 h
# HCT-116 = assay: Antiproliferative activity against human HCT-116 cells assessed as inhibition of cell growth measured after 96 hrs by SRB assay; format: functional, cell-based; conditions: HCT-116, 96 h
# [3] = Cytotoxicity against human L02 cells assessed as inhibition of cell growth measured after 96 hrs by SRB assay; format: toxicity, cell-based
# [4] = molecular target: T1, von Hippel-Lindau disease tumor suppressor/Cyclin-dependent kinase 12 (Homo sapiens, UniProt P40337+Q9NYV4); assay: PROTAC activity at VHL/CDK12 in human HeLa cells assessed as induction of CDK12 degradation measured after 24 hrs by fluorescence based cytoblot assay; format: cell-based
# [5] = molecular target: T1, von Hippel-Lindau disease tumor suppressor/Cyclin-dependent kinase 12; assay: PROTAC activity at VHL/CDK12 in human HeLa cells assessed as induction of CDK12 degradation measured after 24 hrs by Western blotting analysis; format: cell-based
# MDA-MB-231 [6] = assay: Synergistic antiproliferative activity against human MDA-MB-231 cells assessed as combination index at 500 nM incubated for 14 days in presence of olaparib by sulforhodamine B staining based Chou-Talalay method; format: functional; conditions: time 14 day
# T1 sequence (P40337 whole entry): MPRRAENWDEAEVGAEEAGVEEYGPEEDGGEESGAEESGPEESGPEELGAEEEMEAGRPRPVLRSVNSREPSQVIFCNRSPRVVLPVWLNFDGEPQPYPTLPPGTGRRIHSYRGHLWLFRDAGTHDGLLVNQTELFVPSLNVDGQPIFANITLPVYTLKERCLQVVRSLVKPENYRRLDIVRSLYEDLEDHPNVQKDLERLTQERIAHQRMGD
# T1 sequence (Q9NYV4 whole entry): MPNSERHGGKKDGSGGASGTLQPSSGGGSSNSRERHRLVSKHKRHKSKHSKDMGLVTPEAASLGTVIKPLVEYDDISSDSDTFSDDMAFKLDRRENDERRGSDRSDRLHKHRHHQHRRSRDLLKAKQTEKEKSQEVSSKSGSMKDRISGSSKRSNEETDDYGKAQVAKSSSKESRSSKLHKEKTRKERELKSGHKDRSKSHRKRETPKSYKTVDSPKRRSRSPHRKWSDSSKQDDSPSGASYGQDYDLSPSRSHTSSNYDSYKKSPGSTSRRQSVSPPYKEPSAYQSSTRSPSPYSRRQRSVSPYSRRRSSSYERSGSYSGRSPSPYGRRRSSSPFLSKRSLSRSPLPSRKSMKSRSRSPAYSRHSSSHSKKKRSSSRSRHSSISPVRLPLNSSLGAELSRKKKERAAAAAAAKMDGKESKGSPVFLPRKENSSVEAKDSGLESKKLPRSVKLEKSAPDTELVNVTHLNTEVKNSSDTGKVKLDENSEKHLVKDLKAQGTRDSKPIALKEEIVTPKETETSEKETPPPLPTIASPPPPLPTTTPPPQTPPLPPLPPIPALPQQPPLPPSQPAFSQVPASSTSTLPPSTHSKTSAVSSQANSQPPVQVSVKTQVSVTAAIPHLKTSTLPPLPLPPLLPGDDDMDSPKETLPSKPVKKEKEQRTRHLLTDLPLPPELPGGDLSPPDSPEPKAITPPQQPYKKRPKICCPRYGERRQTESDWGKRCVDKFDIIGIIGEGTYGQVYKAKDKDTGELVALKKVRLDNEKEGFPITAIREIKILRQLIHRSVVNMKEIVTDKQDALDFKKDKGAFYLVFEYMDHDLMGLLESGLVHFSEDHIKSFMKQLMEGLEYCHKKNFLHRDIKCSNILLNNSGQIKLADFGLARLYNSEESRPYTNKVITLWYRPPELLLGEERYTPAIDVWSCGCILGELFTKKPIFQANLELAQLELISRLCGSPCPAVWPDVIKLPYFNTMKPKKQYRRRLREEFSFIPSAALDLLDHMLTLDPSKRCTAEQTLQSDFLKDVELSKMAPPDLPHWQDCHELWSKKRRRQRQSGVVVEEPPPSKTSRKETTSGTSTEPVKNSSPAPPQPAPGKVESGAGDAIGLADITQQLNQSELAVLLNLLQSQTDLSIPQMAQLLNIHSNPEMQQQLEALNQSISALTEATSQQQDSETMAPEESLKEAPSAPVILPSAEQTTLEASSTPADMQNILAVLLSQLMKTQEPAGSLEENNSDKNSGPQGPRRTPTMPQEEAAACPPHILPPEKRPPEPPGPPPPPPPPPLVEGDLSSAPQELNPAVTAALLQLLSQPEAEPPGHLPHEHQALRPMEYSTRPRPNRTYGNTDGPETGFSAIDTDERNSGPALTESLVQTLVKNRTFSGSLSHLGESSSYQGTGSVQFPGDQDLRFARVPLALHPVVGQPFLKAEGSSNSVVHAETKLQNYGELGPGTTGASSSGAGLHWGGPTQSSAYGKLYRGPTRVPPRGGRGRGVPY
# Protein cereblon/Cyclin-dependent kinase 12 (Homo sapiens), sequence (Q96SW2 whole entry, looked up): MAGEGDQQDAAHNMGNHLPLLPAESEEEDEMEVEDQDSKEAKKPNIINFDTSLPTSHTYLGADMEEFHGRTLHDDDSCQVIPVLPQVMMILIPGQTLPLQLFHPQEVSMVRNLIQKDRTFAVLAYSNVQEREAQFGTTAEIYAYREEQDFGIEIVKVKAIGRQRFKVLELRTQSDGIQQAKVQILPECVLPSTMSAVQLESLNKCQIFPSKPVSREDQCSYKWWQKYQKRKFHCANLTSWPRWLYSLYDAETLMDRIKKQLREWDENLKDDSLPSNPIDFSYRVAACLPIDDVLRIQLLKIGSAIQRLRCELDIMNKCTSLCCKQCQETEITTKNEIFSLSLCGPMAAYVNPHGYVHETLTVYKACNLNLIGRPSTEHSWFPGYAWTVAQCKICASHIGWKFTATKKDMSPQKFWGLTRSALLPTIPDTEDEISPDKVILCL
# Protein cereblon/Cyclin-dependent kinase 12 (Homo sapiens), sequence (Q9NYV4 whole entry, looked up): as the sequence (Q9NYV4 whole entry) above
Activity [1],IC50 (HeLa),IC50 (MDA-MB-231 [2]),IC50 (Bel-7402),IC50 (HCT-116),DC50 [4],DC50 [5],Structure (SMILES),IC50 at 96 h [3],CI (MDA-MB-231 [6])
,106 nM,133 nM,650 nM,89 nM,,,CN(C)C/C=C/C(=O)Nc1ccc(C(=O)N2CCC[C@@H](Nc3ncc(Cl)c(-c4c[nH]c5ccccc45)n3)C2)cc1,119 nM,
,,,,,57 nM,83 nM,CC(C)S(=O)(=O)c1ccccc1Nc1nc(N[C@@H]2CCCN(CCCCCCCNC(=O)COc3cccc4c3C(=O)N(C3CCC(=O)NC3=O)C4=O)C2)ncc1Cl (some centres not stated),,

# More lines, now with the values behind:
Structure (SMILES),Activity [1],IC50 (HeLa),IC50 (MDA-MB-231 [2]),IC50 (Bel-7402),IC50 (HCT-116),DC50 [4],DC50 [5],IC50 at 96 h [3],CI (MDA-MB-231 [6])
CC(C)S(=O)(=O)c1ccccc1Nc1nc(N[C@@H]2CCCN(CCCCc3cn(CCCCCCCOc4cccc5c4C(=O)N(C4CCC(=O)NC4=O)C5=O)nn3)C2)ncc1Cl (some centres not stated),Active,,,,,,,,
Cc1ncsc1-c1ccc([C@H](C)NC(=O)[C@@H]2C[C@@H](O)CN2C(=O)[C@@H](NC(=O)CCCCCCNC(=O)CN2CCC[C@@H](Nc3ncc(Cl)c(Nc4ccccc4S(=O)(=O)C(C)C)n3)C2)C(C)(C)C)cc1,,316 nM,468 nM,491 nM,665 nM,74 nM,85 nM,> 1000 nM,0.17
CC(C)S(=O)(=O)c1ccccc1Nc1nc(N[C@@H]2CCCN(CCCCc3cn(CCCCCCCOc4ccc5c(c4)C(=O)N(C4CCC(=O)NC4=O)C5=O)nn3)C2)ncc1Cl (some centres not stated),Active,,,,,,,,

# — ChEMBL document CHEMBL5346915, “A practical "preTACs-cytoblot" platform accelerates the streamlined development of PROTAC-based protein degraders” (Eur J Med Chem, 2023)
